Source: the NIST ThermoML archive (doi:10.1016/j.jct.2015.10.004)
Several values for one entry are separate records, joined by “and”; a condition that tells them apart may be missing. Identical values can stand only once. Numbers after ± are expanded uncertainties.

Assay: mn = molality of the nth substance listed, in mol/kg
Conditions: 101 kPa, Liquid, Alternating current cell with electrodes

Which results are given for C[C@H](N)C(=O)N[C@@H](CCC(N)=O)C(=O)O [L-alanyl-L-glutamine] + O?
electrical conductivity (293.15 K, m1 = 0.05): 0.0034 ± 0.0004 S/m; electrical conductivity (293.15 K, m1 = 0.1): 0.00555 ± 0.00046 S/m; electrical conductivity (293.15 K, m1 = 0.15): 0.00766 ± 0.00052 S/m; electrical conductivity (293.15 K, m1 = 0.2): 0.0107 ± 0.00072 S/m; electrical conductivity (298.15 K, m1 = 0.05): 0.00364 ± 0.00043 S/m; electrical conductivity (298.15 K, m1 = 0.1): 0.00599 ± 0.00066 S/m; electrical conductivity (298.15 K, m1 = 0.15): 0.0084 ± 0.0007 S/m; electrical conductivity (298.15 K, m1 = 0.2): 0.0115 ± 0.00079 S/m; electrical conductivity (303.15 K, m1 = 0.05): 0.00391 ± 0.00049 S/m; electrical conductivity (303.15 K, m1 = 0.1): 0.00648 ± 0.0006 S/m; electrical conductivity (303.15 K, m1 = 0.15): 0.009 ± 0.00071 S/m; electrical conductivity (303.15 K, m1 = 0.2): 0.0124 ± 0.00086 S/m; electrical conductivity (308.15 K, m1 = 0.05): 0.00427 ± 0.00054 S/m; electrical conductivity (308.15 K, m1 = 0.1): 0.00707 ± 0.00069 S/m; electrical conductivity (308.15 K, m1 = 0.15): 0.00985 ± 0.00079 S/m; electrical conductivity (308.15 K, m1 = 0.2): 0.0138 ± 0.00093 S/m; electrical conductivity (313.15 K, m1 = 0.05): 0.00463 ± 0.0006 S/m; electrical conductivity (313.15 K, m1 = 0.1): 0.00792 ± 0.00078 S/m; electrical conductivity (313.15 K, m1 = 0.15): 0.0112 ± 0.00088 S/m; electrical conductivity (313.15 K, m1 = 0.2): 0.0153 ± 0.001 S/m

Which electrical conductivity (293.15 K, m1 = 0.05) does the source give for CC(C)C[C@H](NC(=O)CN)C(=O)O [glycyl-L-leucine] + O here?
The electrical conductivity was 0.00321 ± 0.0004 S/m.

And the electrical conductivity (293.15 K, m1 = 0.1)?
Its electrical conductivity is 0.00533 ± 0.00046 S/m.

What about the electrical conductivity (293.15 K, m1 = 0.15) of the same compound?
The electrical conductivity was 0.0074 ± 0.00054 S/m.

What about the electrical conductivity (293.15 K, m1 = 0.2) of the same compound?
Its electrical conductivity is 0.0104 ± 0.0007 S/m.

What about the electrical conductivity (298.15 K, m1 = 0.05) of the same compound?
The electrical conductivity was 0.00345 ± 0.00044 S/m.

What about the electrical conductivity (298.15 K, m1 = 0.1) of the same compound?
Its electrical conductivity is 0.0058 ± 0.00052 S/m.

What about the electrical conductivity (298.15 K, m1 = 0.15) of the same compound?
The electrical conductivity was 0.00809 ± 0.0006 S/m.

And the electrical conductivity (298.15 K, m1 = 0.2)?
The electrical conductivity was 0.0113 ± 0.00075 S/m.

And the electrical conductivity (303.15 K, m1 = 0.05)?
Its electrical conductivity is 0.00373 S/m and 0.00372 S/m.

And the electrical conductivity (303.15 K, m1 = 0.1)?
The electrical conductivity was 0.00634 ± 0.00056 S/m.

What about the electrical conductivity (303.15 K, m1 = 0.15) of the same compound?
Its electrical conductivity is 0.00889 ± 0.00066 S/m.

What about the electrical conductivity (303.15 K, m1 = 0.2) of the same compound?
The electrical conductivity was 0.0124 ± 0.00084 S/m.

What about the electrical conductivity (308.15 K, m1 = 0.05) of the same compound?
Its electrical conductivity is 0.00406 ± 0.00053 S/m.

And the electrical conductivity (308.15 K, m1 = 0.1)?
The electrical conductivity was 0.00703 ± 0.00063 S/m.

What about the electrical conductivity (308.15 K, m1 = 0.15) of the same compound?
The electrical conductivity was 0.00987 ± 0.00073 S/m.

What about the electrical conductivity (308.15 K, m1 = 0.2) of the same compound?
Its electrical conductivity is 0.0137 ± 0.00092 S/m.

And the electrical conductivity (313.15 K, m1 = 0.05)?
The electrical conductivity was 0.00455 ± 0.00057 S/m.

And the electrical conductivity (313.15 K, m1 = 0.1)?
The electrical conductivity was 0.00781 ± 0.0007 S/m.

What about the electrical conductivity (313.15 K, m1 = 0.15) of the same compound?
The electrical conductivity was 0.011 ± 0.00081 S/m.

And the electrical conductivity (313.15 K, m1 = 0.2)?
Its electrical conductivity is 0.0152 ± 0.001 S/m.
